This is an account of results in patent US10738024B2, “Compounds for treatment of angiogenesis-mediated diseases” (Indiana University Research and Technology Corporation, priority 2013, dated 2020).

Data set [1] concerns HRECs. Nature of the data set: ALAMARBLUE proliferation assay in HRECs. The format is cell-based, human. As to conditions: for GI50: Homo sapiens, HREC; for in vitro anti-proliferative activity in HRECs: result in words, FIGS. 6B, 6D, 14. The protocol: (§1) Particularly, in a 96-well clear bottom black plate, cells (2,500 cells per well) were seeded in a total volume of 100 μL EGM-2. After 24 hours of incubation of the plate at 37° C. and 5% CO2, a DMSO solution of synthetic cremastranone (1) or SH-11052 (2) was added in the concentration range of 0.5 nM to 500 μM (final DMSO concentration=1%). The plate was then further incubated for 48 hours before adding 11.1 μL of ALAMARBLUE® reagent to each well. Four hours after the addition of ALAMARBLUE®, fluorescence readings with excitation and emission wavelengths of 560 nm and 590 nm, respectively, were taken and the data were analyzed in GraphPad Prism software (v. 6.0). Dose response curves were generated and the GI50 values were calculated using the following equation: Y=100/(1+10^(X−Log GI50)).
(§2) For proliferation assays, cells (2500 per well) were seeded in a 96-well clear bottom black polystyrene plate in a total volume of 100 μL. HUVECs and HRECs were grown in EGM-2 and CSC+ media respectively, while 92-1 and Y79 cells were maintained in RPMI+10% FBS, penicillin/streptomycin and RB medium (IMDM+10% FBS+penicillin/streptomycin+10 μg/mL insulin+55 μM β-mercaptoethanol) respectively. After 24 hours of incubation of the plate at 37° C., the compounds were dissolved in DMSO and added in the concentration range of 500 μM to 0.5 nM. The plate was then incubated at 37° C. and 5% CO2 conditions for 48 hours before adding 11.1 μL of alamar blue reagent for each well. Four hours after the addition of ALAMARBLUE® reagent, fluorescence readings with excitation and emission wavelengths of 560 nm and 590 nm respectively were taken and the data was analyzed in GraphPad Prism software. The dose response curves were generated and the GI50 values were calculated using the equation: Y=100/(1+10^(X−Log GI50)) (Table 1).

Data set [2] has as its system HRECs. Briefly: Apoptosis of HRECs by cleaved caspase-3 staining. The data set is classed as cell-based, human. Here is the method: Further, cells (25,000 per coverslip) were seeded onto coverslips coated with Attachment Factor (Cell Systems, Kirkland, Wash., USA) and incubated at 37° C. and 5% CO2 in EGM-2 until ˜80% confluence was achieved. The cells were then incubated for 4 hours with the indicated concentrations of SH-11052 (2). Staurosporine (SP; 1 μM) was used as a positive control. After the incubation, the cells were fixed in 4% paraformaldehyde for 20 minutes at room temperature followed by three quick washes in Tris buffered saline pH 7.4 (TBS). The cells were permeabilized by incubating with 0.5% Triton X-100 for 10 minutes and then blocked in 10% block solution (DAKO, Glostrup, Denmark) in TBS plus 1% bovine serum albumin (BSA) for 1 hour. The cells were then incubated with cleaved caspase-3 (D175) antibody (1:200 dilution) overnight at 4° C. Dylight 555 conjugated goat anti-rabbit secondary antibody (1:400) was used to probe the cleaved caspase-3 antibody. The coverslips were mounted using Vectashield mounting medium containing DAPI (Vector Labs, Burlingame, Calif., USA) for nuclear staining. The cells were imaged using an LSM 700 confocal microscope (Zeiss, Thornwood, N.Y., USA).

Data set [3] concerns 92-1 uveal melanoma cells. Briefly: ALAMARBLUE proliferation assay in 92-1 uveal melanoma cells. As to conditions: for GI50: 50% growth inhibitory concentration, 48 hours, alamarBlue. The data set is classed as cell-based. The protocol:
as §2

Another data set relates to HUVECs. Briefly: ALAMARBLUE proliferation assay in HUVECs. The following applies: for GI50: 50% growth inhibitory concentration, alamarBlue. The format is cell-based, human. Here is the method: as §1, §2
A further data set relates to NF-κB p65. Briefly: TNF-α induced NF-κB p65 nuclear translocation in HRECs (immunofluorescence). The format is cell-based, human. The following applies: 10 ng/ml TNF-α for 20 minutes. The protocol: Cells (25,000 per coverslip) were seeded onto coverslips coated with Attachment Factor (Cell Systems, Kirkland, Wash., USA) and incubated at 37° C. and 5% CO2 for 24 hours in EGM-2. The cells were starved in 0.1% serum-EBM-2 for 8 hours followed by 0.1% serum-EBM-2 medium for one hour in the presence of different concentrations of SH-11052 (2). The cells were induced with 10 ng/ml TNF-α, a known pro-inflammatory cytokine and inducer of NF-κB, for 20 minutes and fixed with 4% paraformaldehyde solution for 20 minutes at room temperature. Since NF-κB exerts its transcriptional activity in the nucleus, blockade of stimulus-induced nuclear translocation of NF-κB is an indication of NF-κB pathway inhibition.
Cells were quickly washed three times in TBS and permeabilized by incubating with 0.5% Triton X-100 for 10 minutes. The cells were blocked in 10% block solution (DAKO) in TBS plus 1% BSA followed by incubation with an antibody against NF-κB p65 (1:50 dilution). Dylight 488-conjugated goat anti-mouse secondary antibody (1:200 dilution) was used to probe the NF-κB p65 antibody. The coverslips were mounted using Vectashield mounting medium containing DAPI (Vector Labs) for nuclear staining. The cells were imaged using an LSM 700 confocal microscope (Zeiss). […]

Data set [4] has as its system Y-79 retinoblastoma cells. Nature of the data set: ALAMARBLUE proliferation assay in Y-79 retinoblastoma cells. The format is cell-based. The following applies: 50% growth inhibitory concentration, 48 hours. The protocol: as §2
[5] abbreviates: 50% growth inhibitory concentration, 48 hours, alamarBlue, read-out: GI50 HREC.

“Also recorded” adds a separate entry of the source. Like-named read-outs stand apart in the source and are kept apart here.

Take `COc1ccc(CC2COc3cc(OC)c(O)c(O)c3C2=O)cc1O` (single isomer, unassigned) [Compound 2]: the GI50 with HRECs [1] (setting [5]) was found to be 43 µM; in data set [3], 6 µM; with HUVECs (Homo sapiens, HUVEC, 48 h), 18 µM; in data set [4], 87 µM. In addition, the “in vitro anti-proliferative activity in HRECs” value in the data set on HRECs [1] is given as “demonstrated in vitro anti-proliferative activity”. Further, the “apoptosis of HRECs (cleaved caspase-3 staining)” value with HRECs [2] (100 μM, 4 hours) is “negligible apoptosis”. Also, the “in vitro anti-proliferative activity in HUVECs” value in the data set on HUVECs (result in words, FIGS. 6A, 6C) was “demonstrated in vitro anti-proliferative activity”. For the same compound, the “nuclear translocation of NF-κB (p65) upon TNF-α stimulation / NF-κB signaling” value in the data set with NF-κB p65 (listed as SH-11052 (2)) is on record as “blocked NF-κB signaling; also recorded: inhibited”.
As to `COc1ccc(CC2COc3cc(OC)c(OC)c(OC)c3C2=O)cc1OC(=O)[C@H](Cc1ccccc1)NC(=O)OC(C)(C)C` (stereo partly drawn) [Compound 6c, (2S)-2-methoxy-5-((5,6,7-trimethoxy-4-oxochroman-3-yl)methyl)phenyl 2-((tert-butoxycarbonyl)amino)-3-phenylpropanoate], the 50% growth inhibitory concentration (GI50) was determined as 0.087 µM in the data set on HRECs [1] (setting [5]); 0.15 µM in the data set on HRECs [1] (text of Example 15, FIG. 14, read-out: HREC GI50); 400 µM in data set [3]; 0.746 µM in the data set on HUVECs (48 hours, listed as 6c (SH-11037), read-out: GI50 HUVEC); 1 µM with HUVECs (Homo sapiens, HUVEC, 48 h); 12 µM in data set [4]. Moreover, the “in vitro anti-proliferative activity in HRECs” value in the data set with HRECs [1] is “inhibition of proliferation”. In addition, the “apoptosis of HRECs” value in the data set with HRECs [2] (concentration not given, FIGS. 16A-16B, listed as SH-11037 (6c)) is “did not cause apoptosis; also recorded: did not promote apoptosis”. Also, in data set [3] (result in words), the “toxicity to a uveal melanoma cell line” value is given as “non-toxic”. For the same compound, in the data set with NF-κB p65 (listed as SH-11037 (6c)), the “nuclear translocation of NF-κB (p65) upon TNF-α stimulation / NF-κB signaling” value was “did not inhibit NF-κB signaling”.
